From patent US20250034127A1, “AUTOPHAGY INDUCING COMPOUNDS AND USES THEREOF, IN PARTICULAR FOR DISEASES OF THE CNS” (Samsara Therapeutics Inc., priority 2021, published 2025)

System: U2OS cell line stabling expressing RFP-eGFP-hLC3b
Test: Tandem reporter assay (autophagic flux)
Type: cell-based, human
Conditions: RFP-only puncta as percentage of DMSO-treated control, 24 hours
Protocol: Selected compounds of this invention were also assessed for their ability to stimulate autophagy using a U2OS cell line stabling expressing RFP-cGFP-hLC3b (a tandem reporter cell line).
During the process of autophagy, the cargo to be degraded is first enveloped by organelles called autophagosomes. These autophagosomes then fuse with lysosomes, causing them to become acidified and their digestive enzymes to become activated. The term “autophagic flux” is used to represent the dynamic process of autophagy: autophagic flux refers to the whole process of autophagy, including autophagosome formation, maturation, fusion with lysosomes, subsequent breakdown and the release of macromolecules back into the cytosol (Zhang X J, Chen S, Huang K X, Le W D. Why should autophagic flux be assessed? Acta Pharmacol Sin. 2013 May; 34 (5): 595-9. doi: 10.1038/aps.2012.184. Epub 2013 Mar. 11). Compounds that stimulate autophagic flux stimulate the dynamic process of autophagy (the whole process of autophagy).
LC3b is a protein found in the membrane of autophagosomes which has been used to generate genetic reporters of autophagy in cells. In these systems a tandem fusion of LC3b is engineered with two fluorescent proteins of different wavelengths: one which is acid sensitive (for example eGFP, which fluoresces green) and the other which is acid insensitive (for example RFP, which fluoresces red). Cells expressing RFP-cGFP-hLC3b can be examined using fluorescent microscopy: the autophagosomes present will fluoresce in both channels (either yellow in an overlay of both channels or puncta that are present in both the individual red and green channels) but the autolysosomes present will fluoresce in the RFP (red) channel only. Using a fluorescent microscope, the number of autophagosomes and autolysosomes can be counted, allowing for the monitoring of both the induction of autophagy (total puncta count) and the rate of autophagic flux (ratio of red-only to red-and-green puncta). The influence of small molecules on autophagy induction and flux can be assessed using this system by comparison to a non-treated control.
Representative Procedure: Human osteosarcoma U2OS cells stably expressing RFP-eGFP-hLC3b were seeded (10,000 cells/well) into a 96-well glass-bottom plate (Cell Carrier Ultra, Perkin Elmer) in DMEM Glutamax media (Gibco) supplemented with 10% Fetal Bovine Serum (FBS) and antibiotics (100 u/ml penicillin, 100 μg/ml streptomycin, Invitrogen), then incubated overnight in a humified atmosphere at 37° C. and 5% CO2. The cells were then treated with the compounds of interest, dissolved in DMSO, in a duplicated 5- or 10-point dose-response. 8 wells were treated with an equivalent volume of DMSO, 4 with […] torin-1 as a positive control (MCE) and 4 wells with 0.4 μM torin-1 plus 0.2 μM bafilomycin (MCE) as a control for flux inhibition. The cells were returned to the incubator and the treatment continued for 24 hours. After treatment, the media was aspirated off and the cells fixed with a solution of 4% formaldehyde+1% glutaraldehyde (Sigma) in dPBS (plus magnesium and calcium, Gibco). Fixation was allowed to proceed for 15 minutes at room temperature then the fixative solution discarded and replaced with PBS (Gibco) plus Hoescht 33342 (1 μg/ml, Sigma). After 30 minutes the plates were imaged on an Opera Phenix confocal microscope (Perkin-Elmer) using a 40× water objective, collecting using DAPI, mCherry and GFP channels. Cells were detected based upon the staining of their nuclei with DAPI using the Harmony image analysis software (Perkin-Elmer) and the number of autophagosomes (GFP and RFP puncta) and autolysosomes (RFP only puncta) per cell were counted using the spot picking function within the software.

Q: For `CC1CC(N(C(=O)c2csc(-c3cnn(-c4ccccc4)c3)n2)C(C)C)CCN1` (stereo not drawn) [Compound 297, N-(2-methylpiperidin-4-yl)-2-(1-phenyl-1H-pyrazol-4-yl)-N-(propan-2-yl)-1,3-thiazole-4-carboxamide], which “Autolysosome % DMSO activity (compound concentration of 1 μM)” value is on record?
A: 109%

Q: What about the “Autolysosome % DMSO activity (compound concentration of 10 μM)” value of the same compound?
A: 119%

Q: What does the source list for `CC(C)N(C(=O)c1csc(-c2cnn(-c3ccccc3)c2)n1)[C@@H]1CN[C@H](C)C1` [Compound 299, N-[(3S,5R)-5-methylpyrrolidin-3-yl]-2-(1-phenyl-1H-pyrazol-4-yl)-N-(propan-2-yl)-1,3-thiazole-4-carboxamide]?
A: Autolysosome % DMSO activity (compound concentration of 1 μM): 162%; Autolysosome % DMSO activity (compound concentration of 10 μM): 152%

Q: `C[C@H]1CN(C(=O)c2nc(-c3cnn(-c4ccccc4)c3)c[nH]2)CCN1` [Compound 279, (3S)-3-methyl-1-[5-(1-phenyl-1H-pyrazol-4-yl)-1H-imidazole-2-carbonyl]piperazine] was tested. Which “Autolysosome % DMSO activity (compound concentration of 1 μM)” value did it give?
A: 123%

Q: What about the “Autolysosome % DMSO activity (compound concentration of 10 μM)” value of the same compound?
A: 158%

Q: How did the “Autolysosome % DMSO activity (compound concentration of 1 μM)” value turn out when `CC1CC(N(C(=O)c2csc(-c3cnn(-c4ccccc4)c3)n2)C(C)C)CC(C)N1` (stereo not drawn) [Compound 298, N-(2,6-dimethylpiperidin-4-yl)-2-(1-phenyl-1H-pyrazol-4-yl)-N-(propan-2-yl)-1,3-thiazole-4-carboxamide] was run?
A: 187%

Q: What about the “Autolysosome % DMSO activity (compound concentration of 10 μM)” value of the same compound?
A: 151%

Q: Which “Autolysosome % DMSO activity (compound concentration of 1 μM)” value does the source give for `CC(C)c1ccc(-n2cc(-c3nc(C(=O)N4CCN[C@@H](C)C4)cs3)cn2)cc1` [Compound 273, (3S)-3-methyl-1-(2-{1-[4-(propan-2-yl)phenyl]-1H-pyrazol-4-yl}-1,3-thiazole-4-carbonyl)piperazine] here?
A: 224%

Q: With `C[C@H]1CN(C(=O)c2csc(-c3cnn(-c4ccc(C(C)(C)C)cc4)c3)n2)CCN1` [Compound 270, (3S)-1-{2-[1-(4-tert-butylphenyl)-1H-pyrazol-4-yl]-1,3-thiazole-4-carbonyl}-3-methylpiperazine] as the compound, how does the “Autolysosome % DMSO activity (compound concentration of 1 μM)” value read?
A: 251%

Q: Which “Autolysosome % DMSO activity (compound concentration of 1 μM)” value does the source give for `C[C@H]1CN(C(=O)c2csc(-c3cnn(-c4ccc(C5CC5)cc4)c3)n2)CCN1` [Compound 266, (3S)-1-{2-[1-(4-cyclopropylphenyl)-1H-pyrazol-4-yl]-1,3-thiazole-4-carbonyl}-3-methylpiperazine] here?
A: 176%

Q: And the “Autolysosome % DMSO activity (compound concentration of 10 μM)” value?
A: 273%
